Laboratory results: US20240018153A1, “BENZENESULFONAMIDE DERIVATIVES AND USES THEREOF” (2692372 ONTARIO, INC., priority 2020, published 2024)
Values belong to the compound of their own block, whether it stands above or below them.

Legend:
β-Tubulin = assay: K562 cell lysis and immunoassay, β-tubulin degradation; assay type: cell-based; design: key: Y: β-tubulin bound in cells and tubulin degradation occurred; conditions: K562 cells
Experimental: K562 cells (ATCC) were cultured in Iscove's Modified Dulbecco's Medium (IMDM) (Wisent) supplemented with 10% FBS and 1% penicillin/streptomycin. Cells were seeded in 6-well plates at 1.71×10^6 cells/well and incubated at 37° C., 5% CO2 for 16 hours. Cells were treated with compounds at the indicated concentrations or DMSO alone and incubated at 37° C., 5% CO2 for 24 hours. Cell suspensions were centrifugated at 1,400 RPM for 5 minutes at room temperature and supernatants were discarded. Cell pellets were resuspended with 1× RIPA buffer (Millipore) and incubated on ice for 15 minutes. Protein lysates were extracted by centrifugating at 20,000 RPM for 20 minutes at 4° C. Proteins were separated and total β-Tubulin levels were quantified by Simple Western Immunoassay (ProteinSimple) using the Protein Normalization Assay Module for Jess (ProteinSimple) according to the manufacturer's protocol, using a protein concentration of 0.05 μg/μl and an antibody targeting β-Tubulin (Abcam) diluted to 1:800. β-Tubulin levels were quantified relative to the Protein Normalization Reagent and subsequently normalized to the DMSO control.

EGFR [1] = target: T1, EGFR (Homo sapiens (Human), UniProt P00533); assay: Time-dependent inhibition of EGFR (HTRF); assay type: biochemical; conditions: pre-incubation 0-60 min
T1 sequence (P00533 25-1210): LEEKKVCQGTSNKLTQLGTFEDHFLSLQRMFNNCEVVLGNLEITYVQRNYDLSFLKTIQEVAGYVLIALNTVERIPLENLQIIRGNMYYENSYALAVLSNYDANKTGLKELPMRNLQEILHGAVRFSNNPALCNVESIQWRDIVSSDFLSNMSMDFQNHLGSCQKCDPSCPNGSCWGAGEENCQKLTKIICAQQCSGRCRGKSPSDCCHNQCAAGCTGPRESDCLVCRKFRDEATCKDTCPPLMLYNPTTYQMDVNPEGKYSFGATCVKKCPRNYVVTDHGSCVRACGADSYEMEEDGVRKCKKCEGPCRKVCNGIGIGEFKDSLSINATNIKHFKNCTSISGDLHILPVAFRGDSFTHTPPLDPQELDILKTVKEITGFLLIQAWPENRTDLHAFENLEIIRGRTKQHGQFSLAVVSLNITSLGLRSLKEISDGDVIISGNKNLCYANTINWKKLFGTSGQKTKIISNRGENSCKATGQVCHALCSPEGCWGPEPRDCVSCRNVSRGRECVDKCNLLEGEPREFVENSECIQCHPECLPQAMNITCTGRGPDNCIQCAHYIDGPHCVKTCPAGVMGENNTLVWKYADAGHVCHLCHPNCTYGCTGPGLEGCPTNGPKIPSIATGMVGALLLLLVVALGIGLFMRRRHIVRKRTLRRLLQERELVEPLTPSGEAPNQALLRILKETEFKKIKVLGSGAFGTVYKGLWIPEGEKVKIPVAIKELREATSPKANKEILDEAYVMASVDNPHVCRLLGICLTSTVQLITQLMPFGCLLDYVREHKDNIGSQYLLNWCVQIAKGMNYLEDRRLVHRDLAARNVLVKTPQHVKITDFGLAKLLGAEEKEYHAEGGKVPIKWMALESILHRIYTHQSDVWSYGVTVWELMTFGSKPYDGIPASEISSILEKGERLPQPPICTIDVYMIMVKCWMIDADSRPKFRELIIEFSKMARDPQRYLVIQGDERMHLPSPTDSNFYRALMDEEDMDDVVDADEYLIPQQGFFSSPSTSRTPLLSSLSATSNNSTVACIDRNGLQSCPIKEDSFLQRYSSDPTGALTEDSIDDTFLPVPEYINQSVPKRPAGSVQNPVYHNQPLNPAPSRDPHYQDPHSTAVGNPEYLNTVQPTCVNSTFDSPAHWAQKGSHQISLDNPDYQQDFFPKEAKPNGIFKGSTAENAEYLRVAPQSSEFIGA
Experimental: For the time-dependent inhibition experiments, the activity of EGFR kinase was monitored using a HTRF® KinEASE-TK kit from Cisbio (62TK0PEC) as described above. Six compounds showing higher potency during dose response analysis against EGFR, were further evaluated for their change in inhibitory potency over time. Ibrutinib was used as a positive control. The selected compounds were pre incubated with the kinase at 11 different concentrations, ranging from […] to 25 uM final compound concentrations. The pre incubation times were 0, 2, 5, 10, 15, 30, 45 and 60 min. After the preincubation, the reaction was initiated by adding biotinylated substrate and ATP and the reaction was allowed to proceed for 45 min. […] The reaction was terminated by adding 31.25 nM SA-XL665 and 100 fold diluted europium labelled antibody (Eu-Ab), diluted in 1× detection buffer that contained EDTA. After 60 min of incubation, the fluorescence emission was measured at 620 nm and 665 nm. The ratio of Em 665 nm to Em 620 nm was proportional to the amount of substrate phosphorylated by the kinase. Product formation vs pre-incubation time data were fitted to a one phase exponential decay equation using GraphPad Prism. The same product formation vs inhibitor concentration data were also fitted to a log(antagonist) vs. response—Variable slope equation in GraphPad Prism to provide IC50 values at different pre incubation times.

EGFR [2] = target: T1, EGFR; assay: HTRF KinEASE-TK kinase assay, EGFR; assay type: biochemical; conditions: 3 h preincubation
Summary of the method: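 HTRF KinEASE-TK format: EGFR pre-incubated with compound at 1 and 10 uM final (0.5% DMSO) in kinase buffer with 2 mM MnCl2, 5 mM MgCl2 and 1 mM TCEP.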

BTK [3] = target: T2, BTK (Homo sapiens (Human), UniProt Q06187); assay: HTRF KinEASE-TK kinase assay, BTK; assay type: biochemical; conditions: 3 h preincubation
T2 sequence (Q06187 whole entry): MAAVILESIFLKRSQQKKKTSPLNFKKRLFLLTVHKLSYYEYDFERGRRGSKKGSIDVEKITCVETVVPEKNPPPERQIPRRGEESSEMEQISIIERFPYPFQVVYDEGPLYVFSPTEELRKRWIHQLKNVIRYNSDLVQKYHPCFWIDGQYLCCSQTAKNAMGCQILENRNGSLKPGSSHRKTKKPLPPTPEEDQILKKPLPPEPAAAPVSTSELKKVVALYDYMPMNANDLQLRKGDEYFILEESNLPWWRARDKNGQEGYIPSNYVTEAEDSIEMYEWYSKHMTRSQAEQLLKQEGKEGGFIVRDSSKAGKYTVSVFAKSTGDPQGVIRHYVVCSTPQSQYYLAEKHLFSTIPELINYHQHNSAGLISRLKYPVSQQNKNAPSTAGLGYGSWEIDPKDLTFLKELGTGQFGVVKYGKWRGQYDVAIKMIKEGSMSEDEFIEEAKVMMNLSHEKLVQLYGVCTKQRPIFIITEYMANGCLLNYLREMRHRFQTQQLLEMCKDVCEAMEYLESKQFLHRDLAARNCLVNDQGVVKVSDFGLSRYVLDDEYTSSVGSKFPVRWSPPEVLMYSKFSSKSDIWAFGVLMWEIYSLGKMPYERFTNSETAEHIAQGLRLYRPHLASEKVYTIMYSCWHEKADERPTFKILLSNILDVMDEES
Summary of the method: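 BTK activity in HTRF KinEASE-TK format, buffer containing 10 mM MnCl2, 5 mM MgCl2, 1 uM ATPγS and 1 mM TCEP; 45 min reaction with biotinylated substrate and ATP.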

BTK [4] = target: T2, BTK; assay: Ramos RA1 cell lysis and immunoassay, phospho-BTK (Y223) inhibition; assay type: cell-based; design: key: X: BTK bound and autophosphoration of BTK inhibited in cells; conditions: RAMOS cells, compound concentration 1 μM
Experimental: (§1) Ramos RA 1 cells (ATCC) were cultured in RPMI-1640 media (Wisent) supplemented with 10% heat-inactivated FBS and 1% penicillin/streptomycin. Cells were seeded in 6-well plates at 1.71×10^6 cells/well and incubated at 37° C., 5% CO2 for 16 hours. Cells were treated with compound at the indicated concentrations or DMSO alone and incubated at 37° C., 5% CO2 for 24 hours. Cell suspensions were centrifugated at 1,400-1,600 RPM for 5 minutes at room temperature and supernatants were discarded. Cell pellets were resuspended with 1× RIPA buffer (Millipore) and incubated on ice for 15 minutes. Protein lysates were extracted by centrifugating at 20,000 RPM for 20 minutes at 4° C. Proteins were separated and total BTK protein levels were quantified by Simple Western Immunoassay (ProteinSimple) using the 12-230 kDa Jess Separation Module according to the manufacturer's protocol, using a protein concentration of 0.25 μg/μl and antibodies targeting BTK (clone #D3H5, Cell Signalling) and β-Actin (clone #AC-15, Santa Cruz) diluted to 1:400 and 1:10, respectively, where the latter was used as a loading control. An equal ratio of rabbit and mouse HRP-conjugated secondary antibodies was used for detection. BTK protein levels were quantified relative to S-Actin loading levels and subsequently normalized to the DMSO control. Phosphorylated BTK levels were quantified using the Protein Normalization Assay Module for Jess (ProteinSimple) according to the manufacturer's protocol, using a protein concentration of 1.5 μg/μl and an antibody targeting pBTK (Y223) (Cell Signalling) diluted to 1:50. Phosphorylated BTK levels were quantified relative to the Protein Normalization Reagent and subsequently normalized to the DMSO control.

BTK [5] = target: T2, BTK; assay: Ramos RA1 cell lysis and immunoassay, total BTK degradation; assay type: cell-based; design: key to % BTK degradation (RAMOS, 24 h): Y: BTK bound in cells and BTK degradation occurred; concentration or dose not given beside the values; conditions: RAMOS cells
Experimental: as §1

BMX = BMX (Homo sapiens (Human), UniProt P51813); assay: HTRF KinEASE-TK kinase assay, BMX; assay type: biochemical; conditions: 3 h preincubation
Chain of BMX (P51813 whole entry): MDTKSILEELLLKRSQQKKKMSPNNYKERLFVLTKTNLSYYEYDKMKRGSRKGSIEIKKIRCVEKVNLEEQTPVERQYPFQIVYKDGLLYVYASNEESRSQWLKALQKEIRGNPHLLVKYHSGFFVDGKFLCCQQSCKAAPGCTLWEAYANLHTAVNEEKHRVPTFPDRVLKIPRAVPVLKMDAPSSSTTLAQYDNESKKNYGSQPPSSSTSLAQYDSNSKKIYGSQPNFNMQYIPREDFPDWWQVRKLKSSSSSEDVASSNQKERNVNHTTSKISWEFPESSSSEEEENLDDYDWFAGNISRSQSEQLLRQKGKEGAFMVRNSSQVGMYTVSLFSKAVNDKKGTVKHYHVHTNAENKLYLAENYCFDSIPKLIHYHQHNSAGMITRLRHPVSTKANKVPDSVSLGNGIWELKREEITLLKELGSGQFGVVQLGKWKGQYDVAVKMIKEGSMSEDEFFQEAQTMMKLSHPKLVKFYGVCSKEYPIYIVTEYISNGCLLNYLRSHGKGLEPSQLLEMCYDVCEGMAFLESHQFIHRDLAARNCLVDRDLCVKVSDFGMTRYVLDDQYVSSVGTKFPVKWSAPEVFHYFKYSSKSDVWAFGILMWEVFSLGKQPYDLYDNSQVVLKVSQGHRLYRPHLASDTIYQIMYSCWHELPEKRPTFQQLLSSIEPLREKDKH
Summary of the method: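 Purchased BMX (0.333 ng/ul, 3.03 nM) was preincubated with or without inhibitor for 3 h at room temperature, then biotinylated substrate and ATP were added. Reactions were stopped with EDTA-containing buffer holding 31.25 nM SA-XL665 and Eu-antibody, and after 60 min phosphorylation was read as the HTRF 665/620 nm emission ratio.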

JAK3 = JAK3 (Homo sapiens (Human), UniProt P52333); assay: HTRF KinEASE-TK kinase assay, JAK3; assay type: biochemical
Chain of JAK3 (P52333 781-1124): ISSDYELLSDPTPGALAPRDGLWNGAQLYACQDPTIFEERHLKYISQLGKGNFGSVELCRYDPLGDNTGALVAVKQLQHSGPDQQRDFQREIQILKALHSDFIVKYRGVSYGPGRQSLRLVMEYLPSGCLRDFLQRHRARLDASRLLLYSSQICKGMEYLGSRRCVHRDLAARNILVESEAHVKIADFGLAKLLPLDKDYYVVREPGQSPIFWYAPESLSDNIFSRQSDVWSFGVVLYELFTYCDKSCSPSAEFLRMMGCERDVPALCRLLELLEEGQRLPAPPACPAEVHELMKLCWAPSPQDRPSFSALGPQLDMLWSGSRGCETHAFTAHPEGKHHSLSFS
Summary of the method: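 Promega JAK3 at 0.21 nM was preincubated with inhibitor for 3 h at room temperature before biotinylated substrate and ATP were added. The reaction was stopped with EDTA detection buffer containing 31.25 nM SA-XL665 and Eu-antibody. After 60 min, the HTRF 665/620 nm emission ratio reflected substrate phosphorylation.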

FGFR4 = FGFR4 (Homo sapiens (Human), UniProt P22455); assay: HTRF KinEASE-TK kinase assay, FGFR4; assay type: biochemical
Chain of FGFR4 (P22455 22-802): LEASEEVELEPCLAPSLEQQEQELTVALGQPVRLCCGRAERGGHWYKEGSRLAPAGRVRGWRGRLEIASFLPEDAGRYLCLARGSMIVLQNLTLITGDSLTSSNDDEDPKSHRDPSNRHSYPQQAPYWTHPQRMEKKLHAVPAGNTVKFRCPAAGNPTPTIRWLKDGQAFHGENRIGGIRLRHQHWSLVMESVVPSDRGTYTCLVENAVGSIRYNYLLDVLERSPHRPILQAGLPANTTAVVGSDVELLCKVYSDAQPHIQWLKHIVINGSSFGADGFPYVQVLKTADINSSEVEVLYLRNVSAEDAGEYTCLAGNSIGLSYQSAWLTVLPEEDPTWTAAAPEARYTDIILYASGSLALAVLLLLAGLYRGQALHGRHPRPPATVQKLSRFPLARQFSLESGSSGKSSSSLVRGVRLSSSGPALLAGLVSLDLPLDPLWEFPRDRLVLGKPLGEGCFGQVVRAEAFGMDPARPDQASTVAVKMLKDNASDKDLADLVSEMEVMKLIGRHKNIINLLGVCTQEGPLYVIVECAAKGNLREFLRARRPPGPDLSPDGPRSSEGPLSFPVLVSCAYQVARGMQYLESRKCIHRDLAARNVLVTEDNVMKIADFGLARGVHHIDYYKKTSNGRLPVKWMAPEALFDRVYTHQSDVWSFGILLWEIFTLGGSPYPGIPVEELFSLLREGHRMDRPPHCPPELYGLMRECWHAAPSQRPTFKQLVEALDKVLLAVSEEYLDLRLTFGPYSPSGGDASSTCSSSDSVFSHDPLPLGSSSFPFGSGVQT
Summary of the method: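 Promega FGFR4 at 0.333 ng/ul (5.12 nM) preincubated with or without inhibitor for 3 h at room temperature, then reaction started with biotinylated substrate and ATP. Stopped with EDTA detection buffer containing 31.25 nM SA-XL665 and Eu-antibody; after 60 min, HTRF 665/620 nm ratio read as substrate phosphorylation.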

RIPK2 = RIPK2 (Homo sapiens (Human), UniProt O43353); assay: In vitro RIPK2 inhibition; assay type: biochemical
Chain of RIPK2 (O43353 whole entry, species assumed): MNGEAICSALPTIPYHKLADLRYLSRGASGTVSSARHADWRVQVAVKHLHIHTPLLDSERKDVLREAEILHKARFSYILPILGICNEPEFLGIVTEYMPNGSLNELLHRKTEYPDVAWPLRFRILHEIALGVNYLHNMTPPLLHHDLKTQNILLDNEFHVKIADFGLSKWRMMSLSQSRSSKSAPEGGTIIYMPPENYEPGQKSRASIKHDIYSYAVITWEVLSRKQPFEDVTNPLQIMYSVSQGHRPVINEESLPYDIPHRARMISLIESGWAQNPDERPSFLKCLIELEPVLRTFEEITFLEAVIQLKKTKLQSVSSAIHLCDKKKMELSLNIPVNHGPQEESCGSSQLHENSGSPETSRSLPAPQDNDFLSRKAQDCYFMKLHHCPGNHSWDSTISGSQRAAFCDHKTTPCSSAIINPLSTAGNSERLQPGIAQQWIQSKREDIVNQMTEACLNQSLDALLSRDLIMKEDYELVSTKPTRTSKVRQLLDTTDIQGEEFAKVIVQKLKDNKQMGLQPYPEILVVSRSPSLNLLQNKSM

Structure (SMILES): COc1ccc(/N=C/c2c(F)c(F)c(F)c(F)c2S(C)(=O)=O)cc1F [Compound I-11, (E)-N-(3-fluoro-4-methoxyphenyl)-1-(2,3,4,5-tetrafluoro-6-(methylsulfonyl)phenyl) methanimine]
Beta-tubulin K562, compound concentration, 24 hrs (β-Tubulin; compound concentration 0.5): Y

Structure (SMILES): C=CC(=O)N1CCC[C@@H](n2nc(-c3ccc(Oc4ccccc4)cc3)c3c(N)ncnc32)C1 [ibrutinib, reference compound]
Time-dependent inhibition of EGFR: product formation versus pre-incubation time (EGFR [1]; mono-exponential decay fit): concentration-dependent first order loss of enzyme activity
Time-dependent inhibition of EGFR: IC50 values versus pre-incubation time (EGFR [1]): decrease as pre-incubation times increase

Structure (SMILES): COc1ccc(NS(=O)(=O)c2c(F)c(F)c(F)c(F)c2C(F)(F)F)cc1F [Compound I-6, 2,3,4,5-tetrafluoro-N-(3-fluoro-4-methoxyphenyl)-6-(trifluoromethyl) benzenesulfonamide]
Beta-tubulin - K562 24 hrs (1 μM) (β-Tubulin): Y
Beta-tubulin K562, compound concentration, 24 hrs (β-Tubulin; compound concentration 10): Y

Structure (SMILES): COc1ccc(CS(=O)(=O)c2c(F)c(F)c(F)c(F)c2OCc2ccccc2)cc1F [Compound I-16, 1-(benzyloxy)-2,3,4,5-tetrafluoro-6-((3-fluoro-4-methoxybenzyl)sulfonyl)benzene]
Beta-tubulin K562, compound concentration, 24 hrs (β-Tubulin; compound concentration 10): Y

remaining activity at 1 µM (EGFR [2]; 1 μM compound, read-out: % EGFR Remaining activity vs DMSO (1 μM, 3 h)): > 90%
remaining activity at 10 µM (EGFR [2]; 10 μM compound, read-out: % EGFR Remaining activity vs DMSO (10 μM, 3 h)): > 90%
remaining activity at 1 µM (BTK [3]; 1 μM compound, read-out: % BTK Remaining activity vs DMSO (1 μM, 3 h)): < 50%
remaining activity at 10 µM (BTK [3]; 10 μM compound, read-out: % BTK Remaining activity vs DMSO (10 μM, 3 h)): < 50%
pBTK inhibition (RAMOS, 24 h) (BTK [4]): X
% BTK degradation (RAMOS, 24 h) (BTK [5]): Y
remaining activity at 1 µM (BMX; 1 uM compound): < 50%
remaining activity at 10 µM (BMX; 10 uM compound): < 50%
remaining activity at 1 µM (JAK3; read-out: % JAK3 Remaining activity vs DMSO (1 μM, 3 h)): > 90%
remaining activity at 10 µM (JAK3; read-out: % JAK3 Remaining activity vs DMSO (10 μM, 3 h)): > 90%
remaining activity at 1 µM (FGFR4; read-out: % FGFR4 Remaining activity vs DMSO (1 μM, 3 h)): 50 to 90%
remaining activity at 10 µM (FGFR4; read-out: % FGFR4 Remaining activity vs DMSO (10 μM, 3 h)): < 50%
remaining activity at 1 µM (RIPK2; read-out: % RIPK2 Remaining activity vs DMSO (1 μM, 3 h)): > 90%
remaining activity at 10 µM (RIPK2; read-out: % RIPK2 Remaining activity vs DMSO (10 μM, 3 h)): > 90%
Structure (SMILES): Nc1ncnc2c1c(-c1ccc(Oc3ccccc3)cc1)nn2[C@@H]1CCCN(C(=O)c2c(F)c(F)c(F)c(F)c2S(N)(=O)=O)C1 [Compound I-35, (R)-2-(3-(4-amino-3-(4-phenoxyphenyl)-1H-pyrazolo[3,4-d]pyrimidin-1-yl)piperidine-1-carbonyl)-3,4,5,6-tetrafluorobenzenesulfonamide]

Structure (SMILES): COc1ccc(CS(=O)(=O)c2c(F)c(F)c(F)c(F)c2OC(F)F)cc1F [Compound I-15, 1-(difluoromethoxy)-2,3,4,5-tetrafluoro-6-((3-fluoro-4-methoxybenzyl)sulfonyl) benzene]
Beta-tubulin K562, compound concentration, 24 hrs (β-Tubulin; compound concentration 10): Y

Structure (SMILES): COc1ccc(N(C)S(=O)(=O)c2c(F)c(F)c(F)c(F)c2C(F)(F)F)cc1F [Compound I-7, 2,3,4,5-tetrafluoro-N-(3-fluoro-4-methoxyphenyl)-N-methyl-6-(trifluoromethyl) benzenesulfonamide]
Beta-tubulin - K562 24 hrs (1 μM) (β-Tubulin): Y
Beta-tubulin K562, compound concentration, 24 hrs (β-Tubulin; compound concentration 0.5): Y

Structure (SMILES): COc1ccc(OCc2c(F)c(F)c(F)c(F)c2S(C)(=O)=O)cc1F [Compound I-17, 1,2,3,4-tetrafluoro-5-((3-fluoro-4-methoxyphenoxy)methyl)-6-(methylsulfonyl) benzene]
Beta-tubulin K562, compound concentration, 24 hrs (β-Tubulin; compound concentration 5): Y

Structure (SMILES): COc1ccc(NC(=O)c2c(F)c(F)c(F)c(F)c2S(=O)(=O)N(C)C)cc1F [Compound I-9, 2-(N,N-dimethylsulfamoyl)-3,4,5,6-tetrafluoro-N-(3-fluoro-4-methoxyphenyl) benzamide]
Beta-tubulin K562, compound concentration, 24 hrs (β-Tubulin; compound concentration 10): Y
